We go through 49 compounds from US5385842A, “Anthraquinones as inhibitors of sulfide production from sulfate-reducing bacteria” (E. I. Du Pont de Nemours and Company, priority 1993, dated 1995).

Each structure is given as a SMILES string. Counter-ions that a name gives are not always drawn.

The subject of one test is Desulfovibrio desulfuricans G100A. As to the kind of experiment: microbe, parasite or virus in culture. The format is cell-based.
Conditions: not given
Turning to `CC(C)NC(=N)NC(=N)Nc1cccc2c1C(=O)c1ccccc1C2=O` [N-[1-(9,10-dihydro-9,10-dioxo)anthracenyl]-N'-(1-methylethyl)imidodicarbonimidic diamide hydrochloride], the “inhibition of sulfide production (in words)” value was “inhibited sulfide formation”.

Still in this test, the particulars now being: Desulfovibrio desulfuricans, G100A, read-out: % Inhib. (inhibition of sulfide production).
The term inhibition denotes the change of the read-out against control, counted positive when it falls. Consider `Nc1c(O)c(S(=O)(=O)O)c(O)c2c1C(=O)c1ccccc1C2=O` [Nuclear fast red, 4-Amino-9,10-dihydro-1,3-dihydroxy-9,10-dioxo-2-anthracenesulfonic acid, monosodium salt], for which the inhibition at 10 ppm was found to be 20.4%. Same read-out and setting: then `O=C1c2cccc(O)c2C(=O)c2c(O)cc(CO)cc21` [Aloe-emodin, 1,8-Dihydroxy-3-(hydroxymethyl)-anthraquinone], with 43.8%. Regarding `CCC(=O)Nc1ccc2c(c1)C(=O)c1ccccc1C2=O` [2-Propionamidoanthraquinone], the inhibition at 30 ppm turned out to be 10.4%. Same read-out and setting: then `CNc1ccc(NCCO)c2c1C(=O)c1ccccc1C2=O` [Disperse blue 3, 1-(2-Hydroxyethyl)amino-4-methylaminoanthraquinone], with 6.4%. In the case of `Cc1c(C(=O)O)c(O)cc2c1C(=O)c1c(O)c([C@@H]3O[C@H](CO)[C@@H](O)[C@H](O)[C@H]3O)c(O)c(O)c1C2=O` [Carminic acid, 7-β-D-Glucopyranosyl-9,10-dihydro-3,5,6,8-tetra-hydroxy-1-methyl-9,10-dioxo-2-anthracene-carboxylic acid], the inhibition at 10 µg/mL stood at 0%. In the case of `O=C1c2ccccc2C(=O)c2c1cccc2S(=O)(=O)O` [1-Anthraquinonesulfonic acid, Na salt], the inhibition at 30 ppm is 3.9%.

Consider `Nc1c(S(=O)(=O)O)cc(Br)c2c1C(=O)c1ccccc1C2=O` [1-Amino-4-bromo-9,10-dihydro-9,10-dioxo-2-anthracene-sulfonic acid, Na salt], for which the inhibition at 10 ppm worked out at 4.3%. Same read-out and setting: the value for `CC(=O)Nc1ccc(Nc2cc(S(=O)(=O)O)c(N)c3c2C(=O)c2ccccc2C3=O)cc1` [Acid blue 40, 4-[[4-(Acetylamino)phenyl]amino]-1-amino-9,10-dihydro-9,10-dioxo-2-anthracenesulfonic acid, Na salt] was 12.5%; that for `O=C1c2ccccc2C(=O)C2CC=CCC12` (centres unmarked) [1,4,4a,9a-Tetrahydroanthraquinone] was 0 to 7%. Turning to `CCc1cc(CC)c(Nc2ccc(Nc3c(CC)cc(CC)cc3CC)c3c2C(=O)c2ccccc2C3=O)c(CC)c1` [1,4-Bis[(2,4,6-triethylphenyl)amino]-9,10-anthracenedione], the inhibition at 30 ppm stood at 4.3%.

For the compound `Cc1ccc(Nc2ccc(Nc3ccc(C)cc3)c3c2C(=O)c2ccccc2C3=O)cc1` [Solvent green 3, 1,4-Bis[(4-methylphenyl)amino]9,10-anthracenedione], the inhibition at 30 ppm stood at 4.3%. The same measure, in the same setting: then `O=C1c2ccccc2C(=O)c2c(O)c(O)cc(O)c21` [Purpurin, 1,2,4-Trihydroxyanthraquinone], with 55.7%; and `COc1cc(NS(=O)(=O)c2ccc(C)cc2)c2c(c1N)C(=O)c1ccccc1C2=O` [N-(4-Amino-9,10-dihydro-3-methoxy-9,10-dioxo-1-anthracenyl)-4-methylbenzenesulfonamide], with 4.3%. The same measure, in the same setting: then `COc1cc(N)c2c(c1N)C(=O)c1ccccc1C2=O` [Disperse red 11, 1,4-Diamino-2-methoxyanthraquinone], with 0%. For the compound `O=C1c2ccc(O)c(O)c2C(=O)c2c(O)ccc(O)c21` [Quinalizarin, 1,2,5,8-Tetrahydroxyanthraquinone], the inhibition at 10 ppm was 80%. With `Cc1ccc2c(c1[N+](=O)[O-])C(=O)c1ccccc1C2=O` [2-Methyl-1-nitroanthraquinone], the inhibition at 30 ppm was 50%.

As to `Nc1c(Br)cc(Br)c2c1C(=O)c1ccccc1C2=O` [1-Amino-2,4-dibromoanthraquinone], the inhibition at 10 ppm is 44.6%. On to `O=C1c2ccccc2C(=O)c2c(Nc3cccc4c3C(=O)c3ccccc3C4=O)cccc21` [Dianthrimide, 1,1'-Iminobis-9,10-anthracenedione], for which the inhibition at 30 ppm was 2.6%. For the compound `O=C1c2ccccc2C(=O)c2cc(S(=O)(=O)NCc3ccccc3)ccc21` [N-Benzyl-9,10-dihydro-9,10-dioxo-2-anthracenesulfonamide], the inhibition at 30 ppm came out at 3.9%. Same read-out and setting: then `O=C1c2cccc(Cl)c2C(=O)c2cccc(Cl)c21` [1,5-Dichloroanthraquinone], with 100%. As to `O=C1c2c(Br)cc(Br)c(O)c2C(=O)c2c(O)c(Br)cc(Br)c21` [2,4,5,7-Tetrabromochrysazin, 2,4,5,7-Tetrabromo-1,8-dihydroxy-9,10-anthracenedione], the inhibition at 10 ppm stood at 40.6%.

With `O=c1c2ccccc2c(=O)c2c1cc(Cl)c1[nH]c3c([nH]c12)c(Cl)cc1c(=O)c2ccccc2c(=O)c13` [7,16-Dichloroindanthrone, 7,16-Dichloro-6,15-dihydro-5,9,14,18-anthrazinetetrone], the inhibition at 10 ppm is 43.8%. For the compound `O=C1c2ccc(O)cc2C(=O)c2ccc(O)cc21` [2,6-Dihydroxyanthraquinone], the inhibition at 10 ppm stood at 28.2%. As for `Oc1ccc2c(O)c3ccccc3cc2c1O` [Anthrarobin, 1,2,10-Anthracenetriol], the inhibition at 10 ppm was determined as 44.4%. Take `O=C1c2ccccc2C(=O)c2cc(S(=O)(=O)O)ccc21` [Anthraquinone-2-sulfonic acid sodium salt monohydrate]: the inhibition at 10 ppm is 17%. Same read-out and setting: then `Nc1c(S(=O)(=O)O)cc(Nc2cccc(S(=O)(=O)CCOS(=O)(=O)O)c2)c2c1C(=O)c1ccccc1C2=O` [Remazol Brilliant blue R, 1-Amino-9,10-dihydro-9,10-dioxo-4-[[3[[2-(sulfoxy)-ethyl]sulfonyl]phenyl]amino]-2-anthracenesulfonic acid, disodium salt], with 12.4%.

As to `O=C1c2ccccc2C(=O)c2c(SBr)cccc21` [1-(Bromothio)anthraquinone], the inhibition at 30 ppm came out at 6.5%.

Take `N#[N+]c1cccc2c1C(=O)c1ccccc1C2=O` [1-Aminoanthraquinone diazonium salt]: the inhibition at 30 ppm is 20.8%.

For `O=C(Nc1cccc2c1C(=O)c1cccc(Cl)c1C2=O)c1ccccc1` [1-Benzamido-5-chloroanthraquinone, N-(5-Chloro-9,10-dihydro-9,10-dioxo-1-anthracenyl)-benzamide], the inhibition at 30 ppm was 10.4%. Regarding `CN(C)Cc1ccc(Nc2ccc(N)c3c2C(=O)c2ccccc2C3=O)cc1` [Basic Blue 47, 1-Amino-4-[4-[(dimethylamino)methyl]phenyl]amino-9,10-anthracenedione], the inhibition at 10 ppm amounted to 37.2%.

Take `O=C1c2c(O)ccc(O)c2C(=O)c2c(O)c(O)c(O)c(O)c21` [Alizarin cyanin, 1,2,3,4,5,8-Hexahydroxyanthraquinone]: the inhibition at 10 ppm is 40.6%. On the same count and under the same terms, the value for `Cc1cc(O)c2c(c1O)C(=O)c1cc(O)cc(O)c1C2=O` [Catenarin, 1,4,5,7-Tetrahydroxy-2-methyl-9,10-anthracenedione] was 37.5%. As for `Cc1ccc(Nc2ccc(O)c3c2C(=O)c2ccccc2C3=O)cc1` [1-Hydroxy-4-(p-toluidino)-anthraquinone, 1-Hydroxy-4-[(4-methylphenyl)amino]-9,10-anthracene-dione], the inhibition at 30 ppm was 3.9%. Same read-out and setting: then `Oc1cccc2cc3cccc(O)c3c(O)c12` [1,8-Dihydroxyanthranol, 1,8-Dihydroxy-9-anthranol], with 88.3%. In the case of `C=CS(=O)(=O)c1cccc(Nc2cc(S(=O)(=O)O)c(N)c3c2C(=O)c2ccccc2C3=O)c1` [Acid blue 215, 1-Amino-4-[[3-(ethenylsulfonyl)phenyl]-9,10-dihydro-9,10-dioxo]-2-anthracene sulfonic acid, monosodium salt], the inhibition at 10 ppm came out at 19.7%. `Cc1cc(Cl)c2c(c1N)C(=O)c1ccccc1C2=O` [1-Amino-4-chloro-2-methylanthraquinone]: the inhibition at 30 ppm was determined as 5.2%.

As to `O=C1c2cccc(O)c2C(=O)c2cccc(O)c21` [1,5-Dihydroxyanthraquinone], the inhibition at 10 ppm stood at 31%.

For the compound `Nc1cc(S(=O)(=O)O)c(O)c2c1C(=O)c1c(O)c(S(=O)(=O)O)cc(N)c1C2=O` [Acid blue 45, 4,8-Diamino-9,10-dihydro-1,5-dihydroxy-9,10-dioxo-2,6-anthracenedisulfonic acid, di Na salt], the inhibition at 10 ppm turned out to be 0%. In the case of `O=C1c2ccc(O)c(O)c2C(=O)c2cccc(S(=O)(=O)O)c21` [Alizarin-5-sulfonic acid, 9,10-Dihydro-5,6-dihydroxy-9,10-dioxo-1-anthracenesulfonic acid], the inhibition at 30 ppm is 7.1%. Same read-out and setting: then `O=C1c2cccc(OCc3ccccc3)c2C(=O)c2c(OCc3ccccc3)cccc21` [1,8-Dibenzyloxyanthraquinone, 1,8-Bis(phenylmethoxy)-9,10-anthracenedione], with 4.5%; and `Cc1cc(O)c2c(c1)C(=O)c1cc(O)cc(O)c1C2=O` [Emodin, 6-Methyl-1,3,8-trihydroxyanthraquinone], with 2.6%. On to `Cc1ccc(S(=O)(=O)Nc2cc(S(=O)(=O)O)c(N)c3c2C(=O)c2ccccc2C3=O)cc1` [1-Amino-9,10-dihydro-4[[(4-methylphenyl)sulfonyl]-amino]-9,10-dioxo-2-anthracenesulfonic acid, Na salt], for which the inhibition at 10 ppm amounted to 3.9%.

On to `Nc1ccc(N)c2c1C(=O)c1c(N)ccc(N)c1C2=O` [Disperse blue 1, 1,4,5,8-Tetraaminoanthraquinone], for which the inhibition at 30 ppm is 3.9%. Turning to `Cc1ccc2c(c1)C(=O)c1ccccc1C2=O` [2-Methylanthraquinone], the inhibition at 30 ppm came out at 10.4%. Take `NCCSc1cc(O)c2c(c1N)C(=O)c1ccccc1C2=O` [1-Amino-2-(2-aminoethylthio)-4-hydroxyanthraquinone]: the inhibition at 30 ppm is 24.7%. As for `O=C(O)c1ccc2c(c1)C(=O)c1ccccc1C2=O` [Anthraquinone-2-carboxylic acid], the inhibition at 10 µg/mL came to 22.6%. `Nc1cccc2c1C(=O)c1cccc(Cl)c1C2=O` [5-Chloro-1-aminoanthraquinone]: the inhibition at 10 ppm amounted to 57.1%. In the case of `Cc1ccc(C)c2c1C(=O)c1ccccc1C2=O` [1,4-Dimethylanthraquinone], the inhibition at 30 ppm was 5.2%.

Staying with this test, now noted: Table III, Example 3.
Regarding `CC(C)NC(=N)NC(=N)Nc1cccc2c1C(=O)c1ccccc1C2=O` [N-[1-(9,10-dihydro-9,10-dioxo)anthracenyl]-N'-(1-methylethyl)imidodicarbonimidic diamide hydrochloride], the “% inhibition of sulfide formation” value is listed as 83%.
